# Results: US20190060239A1, “Technology for the Preparation of Microparticles” (Ansun Biopharma, Inc., priority 2007, published 2019)
# B1: Ovalbumin: purchased from Sigma (protein, UniProt P01012 2-386, looked up)
# Ovalbumin: GSIGAASMEFCFDVFKELKVHHANENIFYCPIAIMSALAMVYLGAKDSTRTQINKVVRFDKLPGFGDSIEAQCGTSVNVHSSLRDILNQITKPNDVYSFSLASRLYAEERYPILPEYLQCVKELYRGGLEPINFQTAADQARELINSWVESQTNGIIRNVLQPSSVDSQTAMVLVNAIVFKGLWEKAFKDEDTQAMPFRVTEQESKPVQMMYQIGLFRVASMASEKMKILELPFASGTMSMLVLLPDEVSGLEQLESIINFEKLTEWTSSNVMEERKIKVYLPRMKMEEKYNLTSVLMAMGITDVFSSSANLSGISSAESLKISQAVHAAHAEINEAGREVVGSAEAGVDAASVSEEFRADHPFLFCIKHIATNAVLFFGRCVSP
# B2: Trypsin: purchased from Worthington (protein, UniProt P00760 24-246, looked up)
# Serine protease 1: IVGGYTCGANTVPYQVSLNSGYHFCGGSLINSQWVVSAAHCYKSGIQVRLGEDNINVVEGNEQFISASKSIVHPSYNSNTLNNDIMLIKLKSAASLNSRVASISLPTSCASAGTQCLISGWGNTKSSGTSYPDVLKCLKAPILSDSSCKSAYPGQITSNMFCAGYLEGGKDSCQGDSGGPVVCSGKLQGIVSWGSGCAQKNKPGVYTKVCNYVSWIKQTIASN
# B3: RNase A: purchased from Sigma (protein, UniProt P61823 27-150, looked up)
# Ribonuclease pancreatic: KETAAAKFERQHMDSSTSAASSSNYCNQMMKSRNLTKDRCKPVNTFVHESLADVQAVCSQKNVACKNGQTNCYQSYSTMSITDCRETGSSKYPNCAYKTTQANKHIIVACEGNPYVPVHFDASV
# B4: PIN 168 (PI8): hexahistidine-tagged human proteinase inhibitor 8 (SEQ ID NO:15) (protein, listed as Homo sapiens)
# chain: MDDLCEANGTFAISLFKILGEEDNSRNVFFSPMSISSALAMVFMGAKGSTAAQMSQALCLYKDGDIHRGFQSLLSEVNRTGTQYLLRTANRLFGEKTCDFLPDFKEYCQKFYQAELEELSFAEDTEECRKHINDWVAEKTEGKISEVLDAGTVDPLTKLVLVNAIYFKGKWNEQFDRKYTRGMLFKTNEEKKTVQMMFKEAKFKMGYADEVHTQVLELPYVEEELSMVILLPDDNTDLAVVEKALTYEKFKAWTNSEKLTKSKVQVFLPRLKLEESYDLEPFLRRLGMIDAFDEAKADFSGMSTEKNVPLSKVAHKCFVEVNEEGTEAAAATAVVRNSRCSRMEPRFCADHPFLFFIRRHKTNCILFCGRFSSP
# modifications: hexahistidine tag; protease inhibitor 8 (PI8) (Serpin B8)
# What was measured:
# Assay type in all cases: physicochemical
# [1] = Microsphere quality score by light microscopy (scoring system of Table 13); conditions: for microsphere formation: control
# Procedure: For each of the compounds listed in A-D above, and for DAS181, cocktail solutions containing 2 mg/ml of compound dissolved in an aqueous solvent and various counterions, antisolvents and pH, as listed below, were prepared in a 96-well microtiter plate (0.1 ml cocktail/well) at room temperature. Control solutions contained either solvent or antisolvent alone, with or without the counterion. Cocktails were cooled by placing in a freezer. The chilled plates were transferred onto pre-chilled (−45° C.) shelves of a Millrock Lab Series Lyophilizer, and the vacuum was applied. The frozen cocktail solutions were allowed to lyophilize for 16 hours.
# The lyophilized powders from the bottoms of the wells were transferred onto glass slides and analyzed by light microscopy for appearance. The quality of the product microspheres was scored based on the uniformity of the microspheres, the absence of undesirable non-microsphere particles (glass-like crystalline forms), and the absence of aggregates.
# Arginine was used as counterion and isopropanol was used as antisolvent. Concentrations of each of the cocktail components—the compound, the counterion and the antisolvent—were varied as shown below in Table 15, and the effect on microsphere quality assessed.
# Experiments were performed to evaluate the effect of antisolvent and counterion concentration variation on the formation of microspheres. The peptides leuprolide and somatostatin, and the antibiotics vancomycin and tobramycin, were tested under a variety of conditions for forming microspheres. Samples were analyzed in 96-well plates as described in the previous Examples.
# The experiments were performed using PGI2 and an analog of PGI2, Ciprostene, at a concentration of 2 mg/ml. Cocktail solutions were mixed at room temperature, then cooled by placing in a freezer. The chilled plates were transferred onto pre-chilled (−45° C.) shelves of a Millrock Lab Series Lyophilizer, and the vacuum was applied. The frozen cocktail solutions were allowed to lyophilize for 16 hours.
# Because the resulting prostaglandin microspheres are hygroscopic, upon microsphere initiation, the humidity was maintained at low levels during the experiments, using a nitrogen gas tank attached to the backfill system on the lyophilizer. Each of the reaction tubes was flushed with N2. In addition, the backfill valve on the lyophilizer was left open to continually flush a low humidity atmosphere over the samples. The microscope used to visualize the resulting microspheres was contained within a plastic bag that was continually purged with dry N2. Sample tubes were placed under the bag to equilibrate for approximately 30 seconds, before opening and spreading onto the glass slide.
# The compound/counterion/antisolvent conditions were as follows:
# Experiments were performed with 200 μl of each of the above cocktail solutions in a 2 ml lyophilization bottle (first flash freeze condition), and 25 μl of each of the above cocktail solutions in a PCR tube (second flash freeze condition). The samples in the lyophilization bottles took approximately 15 seconds to freeze. The samples in the PCR tubes took approximately 3 seconds or less to freeze.
# The cocktails in the 96-well plates were cooled by placing in a freezer. The chilled plates were transferred onto pre-chilled (−45° C.) shelves of a Millrock Lab Series Lyophilizer, and a vacuum was applied. The frozen cocktail solutions were allowed to lyophilize for 16 hours.
# The lyophilized powders from the bottoms of the wells were transferred onto glass slides and analyzed by light microscopy for appearance.
# [2] = Microsphere formation, size and appearance by light microscopy; conditions: for Microsphere Size (microns): 5 mg/ml protein
# [3] = Cascade Impaction of vancomycin microspheres, New Generation Impactor
# Procedure: Vancomycin was dissolved in aqueous buffer at a final concentration of 10 mg/ml. The cocktail contained 5 mM sodium citrate pH 5.0 as counterion and 15% v/v n-propanol as anti-solvent. A 2 ml aliquot of cocktail was frozen in a 10-ml lyophilization vial placed in a −80° C. freezer for 1 hour. The frozen vial was transferred onto a −45° C. lyophilizer shelf and freeze dried for 36 hours.
# The microspheres prepared as described in Example 5 were tested by Cascade Impaction using a New Generation Impactor. The deposition of pharmaceuticals in the respiratory tract can be predicted by the aerodynamic behavior of particles (microspheres) on the stages/collection plates of the cascade impactor.
# The microspheres (10 mg) were loaded into HPMC (hydroxypropyl methylcellulose) capsule. The capsule was placed into a CycloHaler (PharmaChemie) dry powder inhaler and subjected to cascade impaction. The collection plates of the impactor representing various areas/stages of deposition post-inhalation (trachea, primary and secondary bronchi, terminal bronchi, alveoli, etc.) were coated with silicon spray to prevent bouncing of the microspheres. The microspheres from the stages and collection plates were recovered into a phosphate buffered saline containing 0.1% Tween, and the amount of deposited vancomycin recovered from each stage and collection plate was quantified by measuring absorbance at 280 nm.
molecule,measurement,setting,value
NC[C@H]1O[C@H](O[C@H]2[C@H](O)[C@@H](O[C@H]3O[C@H](CO)[C@@H](O)[C@H](N)[C@H]3O)[C@H](N)C[C@@H]2N)[C@H](N)C[C@@H]1O [Tobramycin],Microsphere Quality,"[1]; compound 2 mg/ml, Itaconic acid-Na, pH 4.0 2 mM, Isopropanol 0%",4/5
same,Microsphere Quality,"[1]; compound 2 mg/ml, Itaconic acid-Na, pH 4.0 2 mM, Isopropanol 5%",7/8
same,Microsphere Quality,"[1]; compound 2 mg/ml, Itaconic acid-Na, pH 4.0 2 mM, Isopropanol 30%",8/9
same,Microsphere Quality,"[1]; compound 2 mg/ml, Itaconic acid-Na, pH 4.0 2 mM, Isopropanol 40%",6/7
same,Microsphere Quality,"[1]; compound 2 mg/ml, Itaconic acid-Na, pH 4.0 2 mM, Isopropanol […]",7/8
same,Microsphere Quality,"[1]; compound 2 mg/ml, Itaconic acid-Na, pH 4.0 5 mM, Isopropanol 5%",Crystals
same,Microsphere Quality,"[1]; compound 2 mg/ml, Itaconic acid-Na, pH 4.0 10 mM, Isopropanol 5%",Crystals
same,Microsphere Quality,"[1]; compound 2 mg/ml, Itaconic acid-Na, pH 4.0 15 mM, Isopropanol 5%",Crystals
same,Microsphere Quality,"[1]; compound 2 mg/ml, Itaconic acid-Na, pH 4.0 17 mM, Isopropanol 5%",Crystals
same,Microsphere Quality,[1]; pH 4,Crystals
C=C(CC(=O)O)C(=O)O [itaconic acid],microsphere formation,"[1]; no added compound: 2 mM itaconic acid buffered to pH 7, 5% isopropanol",hygroscopic microspheres
same,microsphere formation,"[1]; no added compound: 2 mM itaconic acid buffered with sodium hydroxide at pH 4, 15% isopropanol",microspheres were formed
CCNC(=O)[C@@H]1CCCN1C(=O)[C@H](CCCNC(=N)N)NC(=O)[C@H](CC(C)C)NC(=O)[C@@H](CC(C)C)NC(=O)[C@H](Cc1ccc(O)cc1)NC(=O)[C@H](CO)NC(=O)[C@H](Cc1c[nH]c2ccccc12)NC(=O)[C@H](Cc1c[nH]cn1)NC(=O)[C@@H]1CCC(=O)N1 [leuprolide],Microsphere Quality,"[1]; 2 mM Na-citrate, 15% isopropanol, pH 4.0",5/6
Lysozyme: purchased from Sigma,Microsphere Size (microns),"[2]; 5 mM citrate, pH 8.0, 5% isopropanol",4-5 microns
CCCCC[C@H](O)/C=C/[C@@H]1[C@H]2C/C(=C/CCCC(=O)O)O[C@H]2C[C@H]1O [Prostaglandin I2],Microsphere Quality,"[1]; compound 2 mg/ml, 2 mM Arginine, pH 9, 20% n-propanol, 5% t-butanol",7/8
same,Microsphere Quality,"[1]; compound 2 mg/ml, 2 mM Arginine, pH 9, 20% n-propanol, 55% t-butanol",5/6
same,Microsphere Quality,"[1]; compound 2 mg/ml, 2 mM TEA, pH 11, 20% n-propanol, 5% t-butanol",7/8
same,Microsphere Quality,"[1]; compound 2 mg/ml, 2 mM TEA, pH 11, 30% n-propanol, 0% t-butanol",2/3
Green fluorescent protein,Microsphere Size (microns),"[2]; 5 mM pivalic acid, pH 7.0, 10% 1-propanol",0.5-1.5 microns
Hemoglobin,Microsphere Size (microns),"[2]; 5 mM glycine, pH 5.0, 10% isopropanol",0.4-0.7 microns
CN[C@H](CC(C)C)C(=O)N[C@H]1C(=O)N[C@@H](CC(N)=O)C(=O)N[C@H]2C(=O)N[C@H]3C(=O)N[C@H](C(=O)N[C@H](C(=O)O)c4cc(O)cc(O)c4-c4cc3ccc4O)[C@H](O)c3ccc(c(Cl)c3)Oc3cc2cc(c3O[C@@H]2O[C@H](CO)[C@@H](O)[C@H](O)[C@H]2O[C@H]2C[C@](C)(N)[C@H](O)[C@H](C)O2)Oc2ccc(cc2Cl)[C@H]1O [Vancomycin],Percent Deposition of Vancomycin,"[3]; Capsule + device, size cut-off NA",37.57%
same,Percent Deposition of Vancomycin,"[3]; Throat, size cut-off >10 microns, oral cavity",10.48%
same,Percent Deposition of Vancomycin,"[3]; impactor component 1, size cut-off >8.06 microns, Oral cavity/pharynx",3.33%
same,Percent Deposition of Vancomycin,"[3]; impactor component 2, size cut-off 4.46-8.06 microns, pharynx",7.71%
same,Percent Deposition of Vancomycin,"[3]; impactor component 3, size cut-off 2.82-4.46 microns, trachea/bronchi",15.47%
same,Percent Deposition of Vancomycin,"[3]; impactor component 4, size cut-off 1.66-2.82 microns, secondary bronchi",16.69%
same,Percent Deposition of Vancomycin,"[3]; impactor component 5, size cut-off 0.94-1.66 microns, terminal bronchi/alveoli",6.38%
same,Percent Deposition of Vancomycin,"[3]; impactor component 6, size cut-off 0.55-0.94 microns, alveoli",1.59%
same,Percent Deposition of Vancomycin,"[3]; impactor component 7, size cut-off 0.34-0.55 microns, alveoli",0.51%
same,Percent Deposition of Vancomycin,"[3]; impactor component 8, size cut-off <0.34 microns, alveoli",0.27%
same,geometric size of microspheres,"[2]; 10 mg/ml vancomycin, 5 mM sodium citrate pH 5.0, 15% v/v n-propanol, light microscopy",1.0-3.0 microns
same,Microsphere Quality,"[1]; compound 2 mg/ml, Na-citrate, pH 5.0 7.5 mM, Isopropanol 5%",9/8
same,Microsphere Quality,"[1]; compound 2 mg/ml, Na-citrate, pH 5.0 […], Isopropanol 5%",9/8
same,microsphere rating,[1]; pH 5,9/10
CC1(C)S[C@@H]2[C@H](NC(=O)[C@H](N)c3ccccc3)C(=O)N2[C@H]1C(=O)O [Ampicillin],Microsphere Quality,"[1]; 2 mg/ml compound, 2 mM Na-Citrate, 5% n-propanol, pH 5.0",3/4
same,Microsphere Quality,"[1]; 2 mg/ml compound, 2 mM Na-Glutamate, 5% n-propanol, pH 4.0",3-5
B1,Microsphere Size (microns),"[2]; 5 mM pivalic acid, pH 4.0, 10% isopropanol",0.5-1 microns
B2,Microsphere Size (microns),"[2]; 5 mM arginine, pH 8.0, 5% isopropanol",0.5-1 microns
B3,Microsphere Size (microns),"[2]; 5 mM citrate, pH 4.0, 5% isopropanol",0.4-1 microns
B4,Microsphere Size (microns),"[2]; 5 mM citrate, pH 5.0, 7% isopropanol",2-5 microns
